Values quoted from earlier work, collected in US12410178B2, “Small cationic ortho-5,15-di-heteroaryl-porphyrin derivatives and their applications in photoinactivation of microorganisms” (UNIVERSIDADE DE COIMBRA, priority 2019, dated 2025).

Assays:
human HeLa cells = details: phototoxicity in vitro; read-out: concentration at which 50% of human HeLa cells are killed; cited from earlier work
flies = details: in vivo; cited from earlier work

Question: With CCn1cc[n+](CC)c1C1=c2ccc3[n]2[Zn@]24[n]5c(ccc5C(c5ccccc5)=C5C=CC(=[N+]52)C=3)C=C2C=CC1=[N+]24 [Formula (III), zinc(II) phenylporphinate] as the molecule, how does the IC50 (human HeLa cells) read?
Answer: 1200 nM

Question: For C[n+]1ccc(-c2c3nc(c(-c4cc[n+](C)cc4)c4ccc([nH]4)c(-c4ccccc4)c4nc(c(-c5ccccc5)c5ccc2[nH]5)C=C4)C=C3)cc1 [Formula (IV), meso-(di-cis[4-N-methyl-pyridyl]cis-diphenyl-porphyrin)], which phototoxicity towards flies (flies) is on record?
Answer: phototoxic towards flies
